Experimental data: patent US9261497B2, “Method of treating cancer with modulators of SCFSkp2” (New York University, priority 2012, dated 2016)

Legend:
p27 in ECC-1 cells = experiment: p27 immunoblot in ECC-1 cells (whole cell lysates, nuclear and cytoplasmic fractions); details: for Block of E2-induced decrease of p27: ECC-1, control siRNA transfected, 1 nM E2 plus 1 μM Lactacystin or 10 nM ICI 182,780
Description: The endometrial carcinoma cell line (derived from a well-differentiated endometrioid Type I ECA) ECC-1 cells (ATCC, Manassas, Va.) were plated at a density of 3×10^5/well/6-well plate and grown in DMEM:F12 supplemented with 10% FBS (BioWest, Ocala, Fla.). The cell line was passaged in the laboratory for fewer than 6 months after receipt. […] ECAs were plated at a density of 2.2×10^6 cells/6-well Primaria® plates (BD Biosciences, San Jose, Calif.) in McCoys 5A media without phenol red containing 10% charcoal-stripped FBS, 2 mM L-Glutamine (Invitrogen) and antimycotic antibiotic solution (Mediatech, Hendon, Va.).
For subcellular fractionation, following treatments, cells were separated into nuclear and cytoplasmic fractions using the NE-PER kit (Thermo Scientific), and 10 μg cytoplasmic and nuclear protein fractions were loaded onto SDS-PAGE for immunoblotting. […] The membranes were incubated with peroxidase-conjugated goat anti-rabbit or goat anti-mouse secondary antibodies in TBST (1:2000; Thermo Scientific). […] Protein bands were resolved using the SuperSignal West Dura kit (Thermo Scientific), visualized by exposure to X-ray film (HyBlot; Denville Scientific, Denville, N.J.), and following densitometric scanning (Kodak Logic-100), the protein bands were quantified by normalizing to β-actin and compared to the untreated control, and the values represented by the graphs of relative protein levels compared to actin in each well and shown as % of Vehicle control.

ECC-1 cells = experiment: ECC-1 cell proliferation (MTS assay); format: cell-based, human; details: Lactacystin-treated cells
[1] = test system: p27 in 501 Mel, SK-MEL-147, and SK-MEL-173; experiment: Immunoblot of steady state protein levels in metastatic melanoma cell lines; format: cell-based, human; details: 501 Mel cells; 400 nM
Description: 501 Mel cells were also treated with MG-132 (a proteasome inhibitor) to confirm that p27 and p21 induction were responsive to known UPS inhibitors (FIG. 4A, right). […] Thus, treatment of cells with inhibitors targeting the Skp2-Cks1 interface induces protein levels of specific Skp2-Cks1 substrates.
Whole cell extracts were prepared and immunoblotted as previously described Dorrello et al., “S6K1- and betaTRCP-mediated Degradation of PDCD4 Promotes Protein Translation and Cell Growth,” Science 314:467-471 (2006), which is hereby incorporated by reference in its entirety. For knockdown of Skp2 or p27, shRNAs were induced with 2 ng/ml doxycycline for 48 hours, with the last 16 hours co-treated with 0.1% Vehicle or 10 μM inhibitors as indicated. For cycloheximide chase, cells were pretreated 16 h with 0.1% Vehicle or 10 μM inhibitors, followed by 20 ng/ml cycloheximide (Sigma) and whole cell extracts collected for each time point. […] Scanning densitometry was performed on immunoblots using Image J software. For cell cycle analysis, cells were treated with 0.1% Vehicle or 10 μM inhibitors for 16 h. 1×10^6 cells were fixed in 70% ethanol for 2 h, treated with 200 μg/ml RNase A (Invitrogen) for 30 minutes, and stained with 20 μg/ml Propidium Iodine (Sigma). All samples were assayed in triplicates. Signal was detected using the Becton Dickson LSRII flow cytometer and cell cycle profiles were analyzed with FloJo.

Skp2-p27 interaction = molecular target: T1, Skp2-p27 interaction (Homo sapiens, UniProt P61024+Q13309); experiment: p27 binding to HA-Skp2 (HA-immunoprecipitation); details: 10 μM; HA-Skp2 and Cks1 pretreated before p27-pT187; without ubiquitylation
T1 construct: made in house; host or cells: cell-free: rabbit reticulocyte lysate (TNT T7 Coupled Reticulocyte Lysate System, Promega) from pcDNA3.1 plasmids
Description: In vitro ubiquitylation assays were incubated with anti-HA affinity matrix (Roche) in IP buffer (50 mM Tris pH 7.6, 150 mM NaCl, 0.1% NP40, and Roche Complete EDTA-free protease tablet) for 16 h at 4° C. Beads were washed 3× with IP buffer and eluted with 2×SDS Sample Buffer (Boston Bioproducts) and 10% Beta-mercaptoethanol. For binding without ubiquitylation, HA-Skp2 IVT (10 μl) and Cks1 IVT (10 μl) were preincubated with anti-HA affinity matrix in IP buffer for 2 hours, with the addition of p27 kinase reaction (10 μl) for another 16 h incubation at 4° C. All reactions were analyzed after SDS/PAGE by western blotting. Where indicated, Skp2 and Cks1 were pretreated with 10 μM inhibitors for 30 minutes. Kinase reactions were performed with p27 IVT (10 μl) and 0.5 μg/ul CyclinE/CDK2 in kinase buffer (50 mM Tris HCL pH 7.5, 10 mM MgCl2, 2 mM ATP, 2.5 μM Okadaic Acid, and 0.6 mM DTT) at 30° C. for 1 h.

SCF-Skp2 (Skp2-Cks1) = molecular target: T2, SCF-Skp2 (Skp2-Cks1) (Homo sapiens, UniProt P61024+Q13309); experiment: In vitro ubiquitylation assay, Skp2-mediated p27 ubiquitylation (Wild-Type Cks1); format: biochemical; details: 50 μM compound, immunoblot for p27-(Ub)n
T2 construct: made in house; host or cells: cell-free: rabbit reticulocyte lysate (TNT T7 Coupled Reticulocyte Lysate System, Promega) from pcDNA3.1 plasmids
Description: The 96 hits were tested in an in vitro ubiquitylation assay driven by in vitro transcribed/translated Skp2, Cks1, and p27 (Sitry et al., “Three Different Binding Sites of Cks1 are Required for p27-ubiquitin Ligation,” J. Biol. Chem. 277:42233-42240 (2002)). Assay sensitivity was established for various criteria (FIG. 1B): Enhanced ubiquitylation with Cks1 (lane 2), kinase activity requirement (lane 3), and responsiveness to known inhibitors of Cullin (lane 5) or Cdk2 (lane 6) activity (Meijer et al., “Biochemical and Cellular Effects of Roscovitine, a Potent and Selective Inhibitor of the Cyclin-dependent Kinases cdc2, cdk2 and cdk5,” Eur. J. Biochem. 243:527-536 (1997); Soucy et al., “An Inhibitor of NEDD8-activating Enzyme as a New Approach to Treat Cancer,” Nature 458:732-736 (2009), which are hereby incorporated by reference in their entirety). Compounds showing at least 50% inhibition of Skp2-mediated p27 ubiquitylation (FIG. 1C) were counter-screened for inactivity against two anti-target E3 ligases: MDM2 and SCF-βTrCP (FIGS. 6A-B). Compounds C1 and C2 were identified from the primary VLS and C16 and C20 were identified from a second VLS (FIG. 2).
In vitro reconstituted assays were performed as previously described (Dorrello et al., “S6K1- and betaTRCP-mediated Degradation of PDCD4 Promotes Protein Translation and Cell Growth,” Science 314:467-471 (2006), which is hereby incorporated by reference in their entirety) with the exceptions of the use of (1) unlabeled proteins (wild-type and mutant Skp2 and Cks1, p27, Flag-βTrCP, and HA-PDCD4) generated by in vitro transcription-translation (TNT T7 Coupled Reticulocyte Lysate System, Promega); (2) chain elongation with non-methylated ubiquitin; and (3) immunoblotting to detect poly-ubiquitylation. The following reagents were obtained from Boston Biochem: UBE1, His-UbcH3, His-UbcH5c, Ubiquitin, and Ubiquitin Aldehyde. Additional reagents include CDK2/CyclinE1 (Sigma-Aldrich), S6K (Invitrogen), Okadaic acid (Sigma), and DMSO (Sigma-Aldrich). For ubiquitin charging, UBE1 (100 nM) and His-UbcH3 (10 ng/μl) were incubated with ubiquitin (2.5 μg/μl), ATP (2 mM), and 10 μM […] of inhibitors or Vehicle control for 60 min at 30° C. Reactions were stopped in nondenaturing 2× Sample Buffer, with the addition of 10% Beta-mercaptoethanol as indicated, and analyzed by Western blotting.

His-6Skp1-Skp2-Cks1 = molecular target: T3, His-6Skp1-Skp2-Cks1 (Homo sapiens, UniProt P61024+Q13309); experiment: Differential scanning fluorimetry (protein melt); format: binding; details: compound 75 μM; protein 1.5 μM
T3 construct: His6-tagged human Skp2 (residues 89-424); Human full-length Cks1 was produced as described; made in house
Description: Protein melt assays were carried out following the manufacturer's protocol on the LightCycler 480 System II (Roche) using Sypro Orange dye (Sigma). Fluorescence (465 nm excitation/580 nm detection) was acquired (10 data points/sec) at a ramp rate of 0.06° C./sec between 20° C. and 85° C. Melting temperatures were calculated using the LightCycler 480 Protein Melt analysis tool (Roche).

T1 sequence (Q13309 whole entry): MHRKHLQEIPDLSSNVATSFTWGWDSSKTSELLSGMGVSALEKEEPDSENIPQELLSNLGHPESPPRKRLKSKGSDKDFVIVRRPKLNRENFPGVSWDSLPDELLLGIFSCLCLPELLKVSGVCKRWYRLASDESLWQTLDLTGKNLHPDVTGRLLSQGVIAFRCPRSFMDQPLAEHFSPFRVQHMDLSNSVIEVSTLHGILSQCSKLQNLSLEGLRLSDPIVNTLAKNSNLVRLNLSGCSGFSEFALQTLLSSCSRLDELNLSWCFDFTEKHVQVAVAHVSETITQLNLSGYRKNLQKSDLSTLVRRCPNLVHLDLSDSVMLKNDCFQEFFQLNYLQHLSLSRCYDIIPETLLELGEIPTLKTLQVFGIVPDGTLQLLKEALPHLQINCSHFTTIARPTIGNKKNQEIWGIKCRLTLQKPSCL
T1 sequence (P61024 whole entry): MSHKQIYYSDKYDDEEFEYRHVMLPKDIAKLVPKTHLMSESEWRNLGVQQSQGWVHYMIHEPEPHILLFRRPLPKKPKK
T1 sequence (P63208 whole entry partner): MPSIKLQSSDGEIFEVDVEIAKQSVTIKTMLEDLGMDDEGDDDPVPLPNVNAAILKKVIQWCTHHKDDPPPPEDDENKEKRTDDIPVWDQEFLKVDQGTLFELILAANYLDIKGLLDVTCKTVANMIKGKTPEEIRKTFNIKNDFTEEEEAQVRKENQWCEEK
T1 sequence (Q13616 whole entry partner): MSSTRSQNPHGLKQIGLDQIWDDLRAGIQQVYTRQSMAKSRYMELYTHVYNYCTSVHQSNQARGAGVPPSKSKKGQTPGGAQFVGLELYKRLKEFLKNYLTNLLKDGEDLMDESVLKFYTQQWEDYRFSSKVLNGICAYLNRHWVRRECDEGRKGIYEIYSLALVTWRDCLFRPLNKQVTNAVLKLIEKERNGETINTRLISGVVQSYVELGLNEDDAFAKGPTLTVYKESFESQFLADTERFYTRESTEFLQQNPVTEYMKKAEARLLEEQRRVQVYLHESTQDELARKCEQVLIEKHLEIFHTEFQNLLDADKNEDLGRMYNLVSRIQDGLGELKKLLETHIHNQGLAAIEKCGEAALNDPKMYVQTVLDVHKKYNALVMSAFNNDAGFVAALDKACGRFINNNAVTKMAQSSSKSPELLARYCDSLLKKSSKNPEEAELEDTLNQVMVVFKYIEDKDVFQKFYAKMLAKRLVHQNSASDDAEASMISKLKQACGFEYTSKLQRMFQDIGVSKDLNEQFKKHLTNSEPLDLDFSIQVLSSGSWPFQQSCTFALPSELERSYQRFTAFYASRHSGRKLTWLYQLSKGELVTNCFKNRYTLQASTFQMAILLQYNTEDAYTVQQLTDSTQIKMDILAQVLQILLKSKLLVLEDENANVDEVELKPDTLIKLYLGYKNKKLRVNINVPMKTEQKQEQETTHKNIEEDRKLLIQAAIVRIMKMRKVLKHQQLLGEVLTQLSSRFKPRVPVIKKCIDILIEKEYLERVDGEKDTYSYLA
T1 sequence (P62877 whole entry partner): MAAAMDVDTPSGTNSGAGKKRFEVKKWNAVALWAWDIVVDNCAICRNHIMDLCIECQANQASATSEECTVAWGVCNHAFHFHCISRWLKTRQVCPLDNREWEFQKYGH
T3 sequence (Q13309 89-424 limits assumed): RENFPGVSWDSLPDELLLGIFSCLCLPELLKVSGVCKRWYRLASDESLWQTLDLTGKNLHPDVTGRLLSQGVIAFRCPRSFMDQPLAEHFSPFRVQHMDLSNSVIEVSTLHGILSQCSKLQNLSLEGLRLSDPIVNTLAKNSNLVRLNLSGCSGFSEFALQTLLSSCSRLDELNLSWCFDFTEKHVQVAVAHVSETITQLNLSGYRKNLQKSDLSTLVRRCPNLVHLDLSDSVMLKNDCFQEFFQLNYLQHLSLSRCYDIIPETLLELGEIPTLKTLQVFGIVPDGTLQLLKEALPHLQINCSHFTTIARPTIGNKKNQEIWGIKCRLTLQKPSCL
T3 sequence (P61024 whole entry, the tested form may be a part): as the sequence (P61024 whole entry) above
T2 sequence (Q13309 whole entry): as the sequence (Q13309 whole entry) above
T2 sequence (P61024 whole entry): as the sequence (P61024 whole entry) above
T2 sequence (P63208 whole entry partner): as the sequence (P63208 whole entry partner) above
T2 sequence (Q13616 whole entry partner): as the sequence (Q13616 whole entry partner) above
T2 sequence (P62877 whole entry partner): as the sequence (P62877 whole entry partner) above

## C[C@]12CC[C@@H]3c4ccc(O)cc4C[C@@H](CCCCCCCCC[S+]([O-])CCCC(F)(F)C(F)(F)F)[C@H]3[C@@H]1CC[C@@H]2O (some centres unmarked) [ICI 182,780, reference compound]
p27 in ECC-1 cells; 18 h
  Block of E2-induced decrease of p27: nearly completely blocked
p27 in ECC-1 cells; ECC-1, E2 plus 10 nM ICI 182,780, 18 h
  Effect on E2-induced decrease in nuclear p27: to the level of untreated control

## COc1cccc(-c2cc(=O)c3ccccc3o2)c1N [PD 98059, PD98059, reference compound]
p27 in ECC-1 cells; ECC-1, E2 plus 20 μM PD98059, 18 h
  p27 less than control: 24%

## CC(=O)N[C@@H](CSC(=O)[C@]1([C@@H](O)C(C)C)NC(=O)[C@H](C)[C@@H]1O)C(=O)O [Lactacystin, reference compound]
ECC-1 cells
  Inhibition of proliferation: 36%
p27 in ECC-1 cells; ECC-1 (FIG. 11D)
  p27 in nuclear and cytoplasmic fractions: increases p27 in both subcellular fractions
p27 in ECC-1 cells; 18 h
  Block of E2-induced decrease of p27: completely blocked

## NS(=O)(=O)OC[C@@H]1C[C@@H](n2ccc3c(N[C@H]4CCc5ccccc54)ncnc32)C[C@@H]1O [MLN-4924, reference compound]
[1]
  Neddylation of Cul1: inhibited neddylation of Cul1

## CCN1C(=O)C(=Cc2ccccc2O)C(C(=O)OC)=C1C [UM-C2b, reference compound]
Skp2-p27 interaction
  p27 binding to Skp2: lost the ability to inhibit p27 from binding to Skp2

## COCCCN1C(=O)C(=Cc2ccccc2O)C(C(=O)OC)=C1C [UM-C2a, reference compound]
SCF-Skp2 (Skp2-Cks1)
  Inhibition of Skp2-mediated p27 ubiquitylation: partially reduced p27 ubiquitylation

## COc1ccc(Br)cc1C=C1SC(=S)N(Cc2cccnc2)C1=O [UM-C1, reference compound]
His-6Skp1-Skp2-Cks1
  Shift of melting temperature (Tm) of purified protein complex: not
Skp2-p27 interaction
  p27 binding to Skp2: lost the ability to inhibit p27 from binding to Skp2
